Results: patent US10472347B2, “Aminopyrazine compounds with A2A antagonist properties” (Merck Sharp & Dohme Corp., priority 2014, dated 2019)

Target: T1, human A2a receptor (Homo sapiens, UniProt P29274)
T1 construct: purchased Perkin-Elmer RBHA2AM400UA; host or cells: HEK293 cells (membranes)
Test: A2a competition binding assay, Scintillation Proximity technology
Conditions: membranes from HEK293 cells expressing human A2a receptor; Ki by Cheng-Prusoff equation
Summary of the method: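 SPA competition: 0.5 nM tritiated pyrazolotriazolopyrimidine ligand displaced by compound at 3000 to 0.15 nM, 1 h room temperature, human A2a HEK293 membranes pretreated with adenosine deaminase, PBS/10 mM MgCl2 buffer. CGS15943 1 μM defined non-specific binding; EC50 converted to Ki via Cheng-Prusoff.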

T1 sequence (P29274 whole entry): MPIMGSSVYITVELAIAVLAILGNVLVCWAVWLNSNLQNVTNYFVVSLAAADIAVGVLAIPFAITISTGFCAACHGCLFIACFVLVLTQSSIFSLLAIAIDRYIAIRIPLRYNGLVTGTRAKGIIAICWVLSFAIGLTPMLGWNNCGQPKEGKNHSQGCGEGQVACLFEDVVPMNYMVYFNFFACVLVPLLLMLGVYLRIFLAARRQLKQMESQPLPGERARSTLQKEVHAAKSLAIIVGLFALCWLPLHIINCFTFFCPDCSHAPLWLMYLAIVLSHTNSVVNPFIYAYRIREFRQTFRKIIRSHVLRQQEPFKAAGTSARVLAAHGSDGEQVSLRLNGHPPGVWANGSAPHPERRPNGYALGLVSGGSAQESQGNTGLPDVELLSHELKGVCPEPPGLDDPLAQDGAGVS

Ki	Compound
0.287 nM	Cc1nc(C(=O)NCc2ncccc2Cl)c(N)nc1-c1ncco1 [Ex-72, 3-amino-N-[(3-chloropyridin-2-yl)methyl]-6-methyl-5-(1,3-oxazol-2-yl)pyrazine-2-carboxamide]
4.64 nM	Cc1cnc(F)c(CNC(=O)c2nc(C)c(-c3ncco3)nc2N)c1 [Ex-73, 3-amino-N-[(2-fluoro-5-methylpyridin-3-yl)methyl]-6-methyl-5-(1,3-oxazol-2-yl)pyrazine-2-carboxamide]
2.27 nM	Cc1nc(C(=O)NCc2ncc(Cl)cc2F)c(N)nc1-c1ncco1 [Ex-74, 3-amino-N-[(5-chloro-3-fluoropyridin-2-yl)methyl]-6-methyl-5-(1,3-oxazol-2-yl)pyrazine-2-carboxamide]
50.1 nM	Cc1nc(C(=O)NCc2ccncn2)c(N)nc1-c1ncco1 [Ex-76, 3-amino-6-methyl-5-(1,3-oxazol-2-yl)-N-(pyrimidin-4-ylmethyl)pyrazine-2-carboxamide]
0.34 nM	CCn1ccnc1CNC(=O)c1nc(C)c(-c2ncco2)nc1N [Ex-79, 3-amino-N-[(1-ethyl-1H-imidazol-2-yl)methyl]-6-methyl-5-(1,3-oxazol-2-yl)pyrazine-2-carboxamide]
1.59 nM	COc1ccc(C)c(CNC(=O)c2nc(C)c(-c3ncco3)nc2N)n1 [Ex-80, 3-amino-N-[(6-methoxy-3-methylpyridin-2-yl)methyl]-6-methyl-5-(1,3-oxazol-2-yl)pyrazine-2-carboxamide]
2.8 nM	Cc1cc(C)nc(CNC(=O)c2nc(C)c(-c3ncco3)nc2N)n1 [Ex-81, 3-amino-N-[(4,6-dimethylpyrimidin-2-yl)methyl]-6-methyl-5-(1,3-oxazol-2-yl)pyrazine-2-carboxamide]
0.471 nM	Cc1nc(C(=O)NCc2nccn2C(C)C)c(N)nc1-c1ncco1 [Ex-87, 3-amino-6-methyl-N-{[1-(1-methylethyl)-1H-imidazol-2-yl]methyl}-5-(1,3-oxazol-2-yl)pyrazine-2-carboxamide]
11.4 nM	Cc1nc(C(=O)NCc2nc(C(F)(F)F)cn2C)c(N)nc1-c1ncco1 [Ex-92, 3-amino-6-methyl-N-{[1-methyl-4-(trifluoromethyl)-1H-imidazol-2-yl]methyl}-5-(1,3-oxazol-2-yl)pyrazine-2-carboxamide]
1.15 nM	Cc1cc(F)cnc1CNC(=O)c1nc(C)c(-c2ncco2)nc1N [Ex-107, 3-amino-N-[(5-fluoro-3-methylpyridin-2-yl)methyl]-6-methyl-5-(1,3-oxazol-2-yl)pyrazine-2-carboxamide]
6.58 nM	Cc1nc(C(=O)NCc2nccc(C(F)(F)F)n2)c(N)nc1-c1ncco1 [Ex-108, 3-amino-6-methyl-5-(1,3-oxazol-2-yl)-N-{[4-(trifluoromethyl)pyrimidin-2-yl]methyl}pyrazine-2-carboxamide]
15 nM	Cc1nc(C(=O)NCc2ncc(F)cn2)c(N)nc1-c1ncco1 [Ex-109, 3-amino-N-[(5-fluoropyrimidin-2-yl)methyl]-6-methyl-5-(1,3-oxazol-2-yl)pyrazine-2-carboxamide]
1.32 nM	COc1ccnc(CNC(=O)c2nc(C)c(-c3ncco3)nc2N)n1 [Ex-110, 3-amino-N-[(4-methoxypyrimidin-2-yl)methyl]-6-methyl-5-(1,3-oxazol-2-yl)pyrazine-2-carboxamide]

Further lines, the molecule ahead of its results:

Compound	Ki
Cc1nc(C)c(CNC(=O)c2nc(C)c(-c3ncco3)nc2N)s1 [Ex-71, 3-amino-N-[(2,4-dimethyl-1,3-thiazol-5-yl)methyl]-6-methyl-5-(1,3-oxazol-2-yl)pyrazine-2-carboxamide]	23.8 nM
Cc1nc(C(=O)NCc2cc(C(F)F)nc(C(F)F)c2)c(N)nc1-c1ncco1 [Ex-75, 3-amino-N-{[2,6-bis(difluoromethyl)pyridin-4-yl]methyl}-6-methyl-5-(1,3-oxazol-2-yl)pyrazine-2-carboxamide]	40.4 nM
Cc1cn(C)nc1CNC(=O)c1nc(C)c(-c2ncco2)nc1N [Ex-77, 3-amino-N-[(1,4-dimethyl-1H-pyrazol-3-yl)methyl]-6-methyl-5-(1,3-oxazol-2-yl)pyrazine-2-carboxamide]	0.828 nM
Cc1nc(C(=O)NCc2cnn(C)c2C)c(N)nc1-c1ncco1 [Ex-78, 3-amino-N-[(1,5-dimethyl-1H-pyrazol-4-yl)methyl]-6-methyl-5-(1,3-oxazol-2-yl)pyrazine-2-carboxamide]	5.72 nM
Cc1nc(C(=O)NC2CCC(F)(F)CC2)c(N)nc1-c1ncco1 [Ex-83, 3-amino-N-(4,4-difluorocyclohexyl)-6-methyl-5-(1,3-oxazol-2-yl)pyrazine-2-carboxamide]	3.18 nM
Cc1nc(C(=O)NCc2cccc(C(C)C)n2)c(N)nc1-c1ncco1 [Ex-85, 3-amino-6-methyl-N-{[6-(1-methylethyl)pyridin-2-yl]methyl}-5-(1,3-oxazol-2-yl)pyrazine-2-carboxamide]	0.7 nM
Cc1ccc(CNC(=O)c2nc(C)c(-c3ncco3)nc2N)nc1-c1ccccn1 [Ex-88, 3-amino-6-methyl-N-[(3-methyl-2,2′-bipyridin-6-yl)methyl]-5-(1,3-oxazol-2-yl)pyrazine-2-carboxamide]	6.16 nM
Cc1ccc(C(C)C)nc1CNC(=O)c1nc(C)c(-c2ncco2)nc1N [Ex-89, 3-amino-6-methyl-N-{[3-methyl-6-(1-methylethyl)pyridin-2-yl]methyl}-5-(1,3-oxazol-2-yl)pyrazine-2-carboxamide]	0.746 nM
CCOCCc1ccc(C)c(CNC(=O)c2nc(C)c(-c3ncco3)nc2N)n1 [Ex-90, 3-amino-N-{[6-(2-ethoxyethyl)-3-methylpyridin-2-yl]methyl}-6-methyl-5-(1,3-oxazol-2-yl)pyrazine-2-carboxamide]	4.95 nM
Cc1nc(C(=O)NCc2cccn(CC(F)F)c2=O)c(N)nc1-c1ncco1 [Ex-91, 3-amino-N-{[1-(2,2-difluoroethyl)-2-oxo-1,2-dihydropyridin-3-yl]methyl}-6-methyl-5-(1,3-oxazol-2-yl)pyrazine-2-carboxamide]	2.93 nM
Cc1nc(C(=O)NCC2(C#N)CCC2)c(N)nc1-c1ncco1 [Ex-93, 3-amino-N-[(1-cyanocyclobutyl)methyl]-6-methyl-5-(1,3-oxazol-2-yl)pyrazine-2-carboxamide]	4 nM
Cc1nc(C(=O)NCc2cccc3cc[nH]c23)c(N)nc1-c1ncco1 [Ex-95, 3-amino-N-(1H-indol-7-ylmethyl)-6-methyl-5-(1,3-oxazol-2-yl)pyrazine-2-carboxamide]	0.276 nM
Cc1nc(C(=O)NCc2cnc3ccccn23)c(N)nc1-c1ncco1 [Ex-96, 3-amino-N-(imidazo-[1,2-a]pyridin-3-yl-methyl)-6-methyl-5-(1,3-oxazol-2-yl)-pyrazine-2-carboxamide]	12.8 nM
Cc1nc(C(=O)NCc2c(C)nc3ccccn23)c(N)nc1-c1ncco1 [Ex-97, 3-amino-6-methyl-N-[(2-methylimidazo[1,2-a]pyridin-3-yl)methyl]-5-(1,3-oxazol-2-yl)pyrazine-2-carboxamide]	35.2 nM
Cc1nc(C(=O)NCc2ccc3c(n2)NCCC3)c(N)nc1-c1ncco1 [Ex-98, 3-amino-6-methyl-5-(1,3-oxazol-2-yl)-N-(5,6,7,8-tetrahydro-1,8-naphthyridin-2-ylmethyl)pyrazine-2-carboxamide]	2.93 nM
Cc1nc(C(=O)NCc2ccc[n+]([O-])c2)c(N)nc1-c1ncco1 [Ex-99, 3-amino-6-methyl-5-(1,3-oxazol-2-yl)-N-[(1-oxidopyridin-3-yl)methyl]pyrazine-2-carboxamide]	208 nM
Cc1nc(C(=O)NCc2ncn(CC3CC3)c2C)c(N)nc1-c1ncco1 [Ex-100, 3-amino-N-{[1-(cyclopropylmethyl)-5-methyl-1H-imidazol-4-yl]methyl}-6-methyl-5-(1,3-oxazol-2-yl)pyrazine-2-carboxamide]	110 nM
Cc1nc(C(=O)N[C@H]2CC[C@@H](C(F)(F)F)CC2)c(N)nc1-c1ncco1 [Ex-101, 3-amino-6-methyl-5-(1,3-oxazol-2-yl)-N-[cis-4-(trifluoromethyl)cyclohexyl] pyrazine-2-carboxamide]	12.9 nM
Cc1ccc2nc(CNC(=O)c3nc(C)c(-c4ncco4)nc3N)cn2c1 [Ex-102, 3-amino-6-methyl-N-[(6-methylimidazo[1,2-a]pyridin-2-yl)methyl]-5-(1,3-oxazol-2-yl)pyrazine-2-carboxamide]	11.9 nM
Cc1nc(C(=O)NCc2n[nH]c3c2CCC3)c(N)nc1-c1ncco1 [Ex-103, 3-amino-6-methyl-5-(1,3-oxazol-2-yl)-N-(1,4,5,6-tetrahydrocyclopenta[c]pyrazol-3-ylmethyl)pyrazine-2-carboxamide]	0.353 nM
Cc1nc(C(=O)N(C)C(C)c2ccccn2)c(N)nc1-c1ncco1 (stereo not drawn) [Ex-106, 3-amino-N,6-dimethyl-5-(1,3-oxazol-2-yl)-N-(1-pyridin-2-ylethyl)pyrazine-2-carboxamide]	252 nM
Cc1ccn2cc(CNC(=O)c3nc(C)c(-c4ncco4)nc3N)nc2c1 [Ex-111, 3-amino-6-methyl-N-[(7-methylimidazo[1,2-a]pyridin-2-yl)methyl]-5-(1,3-oxazol-2-yl)pyrazine-2-carboxamide]	82.2 nM
Cc1nc(C(=O)NCC(=O)c2ccc(F)cc2)c(N)nc1-c1ncco1 [Ex-112, 3-amino-N-[2-(4-fluorophenyl)-2-oxoethyl]-6-methyl-5-(1,3-oxazol-2-yl)pyrazine-2-carboxamide]	14.5 nM
Cc1nc(C(=O)NCCCN2CCC(F)(F)C2)c(N)nc1-c1ncco1 [Ex-113, 3-amino-N-[3-(3,3-difluoropyrrolidin-1-yl)propyl]-6-methyl-5-(1,3-oxazol-2-yl)pyrazine-2-carboxamide]	30.2 nM
Cc1nc(C(=O)NCc2cn(CC3CC3)cn2)c(N)nc1-c1ncco1 [Ex-114, 3-amino-N-{[1-(cyclopropylmethyl)-1H-imidazol-4-yl]methyl}-6-methyl-5-(1,3-oxazol-2-yl)pyrazine-2-carboxamide]	5.76 nM
Cc1nc(C(=O)NC2CCC(F)(F)C2)c(N)nc1-c1ncco1 (stereo not drawn) [Ex-115, 3-amino-N-(3,3-difluorocyclopentyl)-6-methyl-5-(1,3-oxazol-2-yl)pyrazine-2-carboxamide]	8.74 nM
